EPA's ToxValDB 9.5

Experiments:
Rattus norvegicus [1] = settings: oral
Rattus norvegicus [2] = settings: oral; remark: listed apart in the source
[3] = chronic, duration: 110 days, gavage, M, Sprague-Dawley, Reproductive: Decreased serum testosterone (44%)
[4] = developmental, duration: 47 days, gavage, M/F, Sprague-Dawley, Body Weight: Decreased body weight gain (20-30%) + Developmental: Decreases in pup body weight (only one litter had live pups) + Endocrine: …
[5] = short-term, duration: 14 days, gavage, M, Sprague-Dawley, Body Weight: 25% reduction in final body weight + Reproductive: Decreased serum testosterone (38%) and estradiol (~38%), and ultrastructural…
[6] = short-term, duration: 28 days, gavage, F, Sprague-Dawley, Endocrine: 40% reduced serum estradiol in pubertal females
[7] = subchronic, duration: 47 days, gavage, F, Sprague-Dawley, Hepatic: Single cell necrosis in females / hepatocellular hypertrophy in males and females at […] / bile duct proliferation at […] in …
[8] = acute, gavage, M, Wistar, Central Nervous System: Novel object recognition test
[9] = chronic, duration: 110 days, gavage, M, Sprague-Dawley, Adrenal: Progesterone (P4)
[10] = chronic, duration: 110 days, gavage, M, Sprague-Dawley, Kidney: Blood Urea Nitrogen (BUN) + Kidney: Creatinine (CREAT), Blood + Liver: Alkaline Phosphatase (ALP), Blood + Liver: Bile Acids, Blood
[11] = chronic, duration: 110 days, gavage, M, Sprague-Dawley, Liver: Liver Histopathology + Liver: Triglycerides (TRIG), Blood
[12] = chronic, duration: 110 days, gavage, M, Sprague-Dawley, Liver: Total Bilirubin (TBILI), Blood + Whole Body: Body Weight Change (0-110d) + Whole Body: Body Weight Change (60-90d) + Whole Body: Body…
[13] = chronic, duration: 110 days, gavage, M, Sprague-Dawley, Testis: Testes, Non-Neoplastic Lesions + Whole Body: Body Weight, Absolute
[14] = chronic, duration: 110 days, gavage, M, Sprague-Dawley, Testis: Testosterone (T)
[15] = reproduction developmental, duration: 14 days, gavage, F, Crl:CD(SD), generation: P0, P0: Heart: Heart Weight, Absolute + P0: Liver: Liver Weight, Relative + P0: Pituitary: Pituitary Gland Weight, Absolute + P0: Spleen: Spleen…
[16] = reproduction developmental, duration: 42 days, gavage, M, Crl:CD(SD), generation: P0, P0: Adrenal Gland: Adrenal Gland, Atrophy of the cortex + P0: Adrenal: Adrenal Gland Weight, Absolute + P0: Blood: Albumin/Globulin (A/G) …
[17] = reproduction developmental, duration: 42 days, gavage, M, Crl:CD(SD), generation: P0, P0: Liver: Alkaline Phosphatase (ALP) + P0: Liver: Liver Weight, Relative + P0: Protein Fraction, Globulin alpha-2
[18] = short-term, duration: 2 weeks, gavage, M, Sprague-Dawley, Adrenal: Estradiol + Adrenal: Testosterone (T) + Testis: Testes Weight, Relative + Whole Body: Body Weight, Absolute
[19] = short-term, duration: 2 weeks, gavage, M, Sprague-Dawley, Liver: Cholesterol (CHOL), Total + Liver: Triglycerides (TRIG), Liver + Liver: Triglycerides (TRIG), Serum
[20] = short-term, duration: 2 weeks, gavage, M, Sprague-Dawley, Liver: Cholesterol (CHOL), Total + Pituitary: Leuteinizing hormone (LH) + Testis: Testes Weight, Absolute
[21] = short-term, duration: 2 weeks, gavage, M, Sprague-Dawley, Liver: Liver Weight, Absolute + Liver: Liver Weight, Relative
[22] = short-term, duration: 28 days, F, Sprague-Dawley, Multi-Organ: Cholesterol (CHOL), Total + Multi-Organ: Estradiol + Whole Body: Body Weight, Absolute

With `O=C(O)C(F)(F)C(F)(F)C(F)(F)C(F)(F)C(F)(F)C(F)(F)C(F)(F)C(F)(F)C(F)(F)C(F)(F)C(F)(F)F` [Perfluorododecanoic acid] the LOAEL (Rattus norvegicus [1]; acute, duration: 1 days, gavage, M, Wistar, Body Weight: 44% decrease in body weight gain (measured 10-days post-exposure) + Neurological: Impaired performance on novel object …) was 50 mg/kg-day, the NOAEL (Rattus norvegicus [1]; acute, duration: 1 days, gavage, M, Wistar, Neurological: No alterations in open field activity + Neurological: No alterations in tests of working memory or depressive behavior) was 50 mg/kg-day and the NOAEL (Rattus norvegicus [1]; chronic, duration: 110 days, gavage, M, Sprague-Dawley) was 0.5 mg/kg-day. For the same compound, the LOAEL (Rattus norvegicus [1]; [3]) was 0.2 mg/kg-day, the NOAEL (Rattus norvegicus [1]; [3]) was 0.05 mg/kg-day and the LOAEL (Rattus norvegicus [1]; [4]) was 2.5 mg/kg-day. The NOAEL (Rattus norvegicus [1]; [4]) was 0.5 mg/kg-day, the LOAEL (Rattus norvegicus [1]; [5]) was 5 mg/kg-day and the NOAEL (Rattus norvegicus [1]; [5]) was 1 mg/kg-day. It also gave an NOAEL (Rattus norvegicus [1]; short-term, duration: 14 days, gavage, M, Sprague-Dawley, Hepatic: 35% increase in total serum cholesterol at 10 mg/kg/day) of 10 mg/kg-day, an NOAEL (Rattus norvegicus [1]; short-term, duration: 14 days, gavage, M, Sprague-Dawley, Hepatic: Increased liver weight, increased hepatic triglyceride and cholesterol levels at ?5 mg/kg/day / increased serum triglyceride …) of 10 mg/kg-day and an LOAEL (Rattus norvegicus [1]; [6]) of 3 mg/kg-day. It also gave an NOAEL (Rattus norvegicus [1]; [6]) of 1 mg/kg-day, an LOAEL (Rattus norvegicus [1]; subchronic, duration: 47 days, gavage, F, Sprague-Dawley, Death: 58% mortality) of 2.5 mg/kg-day and an LOAEL (Rattus norvegicus [1]; [7]) of 2.5 mg/kg-day. It also gave an NOAEL (Rattus norvegicus [1]; [7]) of 0.5 mg/kg-day, an NOAEL (Rattus norvegicus [1]; subchronic, duration: 47 days, gavage, M/F, Sprague-Dawley) of 2.5 mg/kg-day and an NOAEL (Rattus norvegicus [2]; acute, gavage, M, Wistar, Brain: Brain Weight, Absolute + Central Nervous System: Elevated platform test (elevated plus test) + Central Nervous System: Forced Swim …) of 50 mg/kg-day. For the same compound, the LOAEL (Rattus norvegicus [2]; acute, gavage, M, Wistar, Brain: Brain Weight, Relative + Central Nervous System: Elevated platform test (elevated plus test) + Central Nervous System: Novel object …) was 50 mg/kg-day, the LOAEL (Rattus norvegicus [2]; [8]) was 20 mg/kg-day and the NOAEL (Rattus norvegicus [2]; [8]) was 5 mg/kg-day. It also gave an LOAEL (Rattus norvegicus [2]; [9]) of 0.2 mg/kg-day, an NOAEL (Rattus norvegicus [2]; [9]) of 0.02 mg/kg-day and an LOAEL (Rattus norvegicus [2]; [10]) of 0.2 mg/kg-day. The NOAEL (Rattus norvegicus [2]; [10]) was 0.05 mg/kg-day, the LOAEL (Rattus norvegicus [2]; chronic, duration: 110 days, gavage, M, Sprague-Dawley, Kidney: Creatine Kinase (CK), Blood + Liver: Albumin (A), Blood + Liver: Liver Weight, Absolute + Liver: Liver Weight, Relative + Liver: Low…) was 0.02 mg/kg-day and the NOAEL (Rattus norvegicus [2]; chronic, duration: 110 days, gavage, M, Sprague-Dawley, Leuteinizing hormone (LH) + Pancreas: Insulin + Pituitary: Follicle stimulating hormone (FSH) + Pituitary: Growth Hormone + Prostate: …) was 0.5 mg/kg-day. The NOAEL (Rattus norvegicus [2]; chronic, duration: 110 days, gavage, M, Sprague-Dawley, Liver: Alanine Aminotransferase (ALT), Blood + Liver: Aspartate Aminotransferase (AST), Blood + Liver: Cholesterol (CHOL), Total, Blood + …) was 0.5 mg/kg-day, the LOAEL (Rattus norvegicus [2]; [11]) was 0.05 mg/kg-day and the NOAEL (Rattus norvegicus [2]; [11]) was 0.02 mg/kg-day. The LOAEL (Rattus norvegicus [2]; [12]) was 0.5 mg/kg-day, the NOAEL (Rattus norvegicus [2]; [12]) was 0.2 mg/kg-day and the LOAEL (Rattus norvegicus [2]; [13]) was 0.5 mg/kg-day. The NOAEL (Rattus norvegicus [2]; [13]) was 0.2 mg/kg-day, the LOAEL (Rattus norvegicus [2]; [14]) was 0.2 mg/kg-day and the NOAEL (Rattus norvegicus [2]; [14]) was 0.05 mg/kg-day. It also gave an NOAEL (Rattus norvegicus [2]; developmental, duration: 14 days, gavage, F, Crl:CD(SD), generation: F1, F1: Whole Body: Body Weight, Fetal, PND0 + F1: Whole Body: Body Weight, Fetal, PND1 + F1: Whole Body: Body Weight, Fetal, PND4) of 0.5 mg/kg-day, an NOAEL (Rattus norvegicus [2]; developmental, duration: 14 days, gavage, M, Crl:CD(SD), generation: F1, F1: Whole Body: Body Weight, Fetal, PND0 + F1: Whole Body: Body Weight, Fetal, PND1 + F1: Whole Body: Body Weight, Fetal, PND4) of 0.5 mg/kg-day and an NOAEL (Rattus norvegicus [2]; reproduction developmental, duration: 14 days, gavage, F, Crl:CD(SD), generation: P0, P0: Adrenal Gland: Adrenal Gland, Atrophy of the cortex + P0: Bone Marrow: Bone Marrow, Decrease in hematopoiesis + P0: Forestomach: …) of 2.5 mg/kg-day. It also gave an NOAEL (Rattus norvegicus [2]; reproduction developmental, duration: 14 days, gavage, F, Crl:CD(SD), generation: P0, P0: Adrenal: Adrenal Gland Weight, Absolute + P0: Adrenal: Adrenal Gland Weight, Relative + P0: Blood: Activated Partial Thromboplastin Time…) of 0.5 mg/kg-day, an LOAEL (Rattus norvegicus [2]; reproduction developmental, duration: 14 days, gavage, F, Crl:CD(SD), generation: P0, P0: Blood: Hematocrit (HCT) + P0: Blood: Hematocrit (HCT), Recovery + P0: Blood: Hemoglobin (HGB), Recovery + P0: Blood: Mean Corpuscular …) of 2.5 mg/kg-day and an LOAEL (Rattus norvegicus [2]; [15]) of 0.5 mg/kg-day. The NOAEL (Rattus norvegicus [2]; [15]) was 0.1 mg/kg-day, the LOAEL (Rattus norvegicus [2]; reproduction developmental, duration: 14 days, gavage, F, Crl:CD(SD), generation: P0, P0: Multi-Organ: Protein Fraction, Albumin) was 0.1 mg/kg-day and the NOAEL (Rattus norvegicus [2]; reproduction developmental, duration: 14 days, gavage, M/F, Crl:CD(SD), generation: F1, F1: Uterus: Fetuses, Dead + F1: Uterus: Fetuses, Live + F1: Whole Body: Live Birth Index + F1: Whole Body: Live Pups on Lactation Day 4 + F1…) was 0.5 mg/kg-day. The LOAEL (Rattus norvegicus [2]; [16]) was 2.5 mg/kg-day, the NOAEL (Rattus norvegicus [2]; [16]) was 0.5 mg/kg-day and the NOAEL (Rattus norvegicus [2]; reproduction developmental, duration: 42 days, gavage, M, Crl:CD(SD), generation: P0, P0: Adrenal: Adrenal Gland Weight, Relative + P0: Basophils + P0: Blood: Activated Partial Thromboplastin Time (APTT) + P0: Blood: …) was 2.5 mg/kg-day. The LOAEL (Rattus norvegicus [2]; [17]) was 0.5 mg/kg-day, the NOAEL (Rattus norvegicus [2]; [17]) was 0.1 mg/kg-day and the LOAEL (Rattus norvegicus [2]; [18]) was 5 mg/kg-day. It also gave an NOAEL (Rattus norvegicus [2]; [18]) of 1 mg/kg-day, an LOAEL (Rattus norvegicus [2]; [19]) of 10 mg/kg-day and an NOAEL (Rattus norvegicus [2]; [19]) of 5 mg/kg-day. It also gave an LOAEL (Rattus norvegicus [2]; [20]) of 10 mg/kg-day, an NOAEL (Rattus norvegicus [2]; [20]) of 5 mg/kg-day and an LOAEL (Rattus norvegicus [2]; [21]) of 5 mg/kg-day. For the same compound, the NOAEL (Rattus norvegicus [2]; [21]) was 1 mg/kg-day, the NOAEL (Rattus norvegicus [2]; short-term, duration: 2 weeks, gavage, M, Sprague-Dawley, Pituitary: Follicle stimulating hormone (FSH)) was 10 mg/kg-day and the NOAEL (Rattus norvegicus [2]; short-term, duration: 28 days, F, Sprague-Dawley, Leuteinizing hormone (LH) + Multi-Organ: Follicle stimulating hormone (FSH) + Ovary: Follicle Count, Antral + Ovary: Follicle Count, …) was 3 mg/kg-day. The LOAEL (Rattus norvegicus [2]; [22]) was 3 mg/kg-day and the NOAEL (Rattus norvegicus [2]; [22]) was 1.5 mg/kg-day.
`O=C(O)C(F)(F)C(F)(F)C(F)(F)C(F)(F)C(F)(F)C(F)(F)C(F)(F)F` [Perfluorooctanoic acid] was tested, and the NOAEL (Rattus norvegicus [1]; acute, duration: 1 days, M, Wistar, Neurological: No alteration in performance on novel object recognition test) was 50 mg/kg-day, the LOAEL (Rattus norvegicus [1]; developmental, duration: 21 days, F, Wistar, Developmental: 17-18% reduced motor coordination and increased locomotor activity in pups on PNDs 34-35) was 1.6 mg/kg-day and the NOAEL (Rattus norvegicus [1]; short-term, duration: 1 weeks, M, Wistar) was 38 mg/kg-day. The NOAEL (Rattus norvegicus [1]; short-term, duration: 1 weeks, M, Wistar, Hepatic: Significant increase in absolute and relative liver weight at ?4.7 mg/kg/day) was 9.5 mg/kg-day, the NOAEL (Rattus norvegicus [1]; short-term, duration: 14 days, M, Sprague-Dawley, Hepatic: 45% increase in relative liver weight) was 20 mg/kg-day and the LOAEL (Rattus norvegicus [1]; short-term, duration: 28 days, M, Sprague-Dawley, Neurological: Cachexia and lethargy) was 5 mg/kg-day.
